# Tests used:
# mouse model = conditions: cited from earlier work
# LDLR mice on HFD = conditions: LDLR mice, very low concentration, preliminary unpublished data
# From the text: Mice. Hypercholesterolemic mice deficient for low-density lipoprotein receptors (Ldlr−/−), which only express ApoB-100 (Ldlr−/−Apob100/100, LDLR), were obtained from Jackson Laboratories (B6; 129SLdlrtm1HerApobtm2Sgy/J, stock no. 003000). WT C57bl/6 mice were also obtained from the Jackson Laboratory (stock no. 000664) and served as controls. TGF-β1^platelet-KO-LDLR mice (Pf4Cre+Tgfb1f/f;Ldlr−/−Apob100/100;) and TGF-β1^flox-LDLR littermate controls (Tgfb1f/f;Ldlr−/−Apob100/100) were generated by crossing LDLR mice with Pf4Cre+;Tgfb1f/f mice, as shown in FIGS. 7A-B and Supplemental Table 5. […] The inventor crossed Tie2Cre mice (stock no. 008863, Jackson Laboratories) with tdTomato lox-stop-lox mice (stock no. 007909, Jackson Laboratories) to generate Tie2Cre;tdTomato mice that express tdTomato only under Cre activity. All mice were housed in a controlled environment (23±2° C.; 12 hours light/dark cycles) and fed either a chow diet (CD) (PicoLab® Rodent Diet 20, 5053) or a customized high fat diet (HFD) (Harlan Teklad, TD.9612102. containing 21% milk fat (MF), 1.25% Cholesterol) in powdered form in a glass jar with perforated metal strainer (DYETS, Braintree Scientific Inc.). The Oklahoma Medical Research Foundation's Institutional Animal Care and Usage Committee approved all procedures.
# Experimental Design. A total of 118 LDLR (58 Males, 60 Females) and 20 WT mice (10 Males, 10 Females) were used for this study. Half of the mice (6 weeks old) were switched to HFD and maintained for up to 9 months. Progression and severity (mild/moderate/severe) of AS were monitored at 0, 3, 6 and 9 months by echocardiography using non-invasive ultrasound imaging techniques. Five mice per cage (total of 25 males, 15 females) were treated with 2% N-acetylcysteine (NAC) (Acros Organics, 160280010) in drinking water. NAC was prepared in reverse osmosis water and its pH was adjusted to 7.4 with NaOH. Water was replaced with a fresh solution every week.
# Echocardiography. Mice were anesthetized with Isoflurane (3-5% inhalation) in an induction chamber. Mice that appeared to be sick due to severe stenosis or that were underweight were anesthetized using a lower isoflurane level to prevent adverse or lethal effects from the anesthetic. Once visibly anesthetized, isoflurane was reduced to 0.5%-2% and the mouse was moved from the chamber to a nose-cone on a heated platform set at 40° C. to maintain body temperature (35±2° C.). Heavier mice were maintained at higher isoflurane levels as they appeared less sensitive to its anesthetic effects. All four limbs were taped to physiological electrodes and a rectal temperature probe was inserted. Electrode gel was used to enhance the physiologic readings. To ensure accuracy of all echo measurements, physiological parameters were monitored and recordings were only taken if the heart rate was 430-550 beats per minute, respiration was 20-100 breaths per minute, and body temperature was close to 37° C. (35±2° C.).
# Measurement of AS parameters using a modified view of ultrasound imaging. Echocardiography is the gold standard non-invasive method to measure AS in humans. However, the mouse heart rate is 10-times faster (500 to 600 beats per minute), making the acquisition of high-resolution images of the very thin non-diseased valves challenging. […] LVOT was measured from the long-axis view and was used to calculate AV pressure and normalize the cusp separation (Lindman et al., 2016; Meyer et al., 2012). This view was obtained by tilting the lower left corner of the platform downward by about 30° and angling the transducer up such that it interfaced with the chest cavity by about 45°.
# [1] = system: ascending aortic constriction (AAC) model; assay: Cardiac fibrosis in ascending aortic constriction (AAC) model; type: in vivo, mice; conditions: WT C57Bl/6 mice, very low concentration, preliminary unpublished data
# From the text: Ascending Aortic Constriction. Ascending aortic constriction was induced by controlled constriction of the ascending aorta as described previously 26. Briefly, mice were anesthetized with 1.5% isoflurane and the ascending aorta was surgically exposed by a mid-thorax incision. A 2 7-0 suture was placed around both the aorta and an adjacent 27-gauge (0.41 mm OD) needle proximal to the origin of the innominate artery. […] Mice were sacrificed and tissues collected 1 month after the surgery.
# [2] = 2007 study; cited from earlier work
smiles,measurement,setting,value
"CC(=O)N[C@@H](CSN=O)C(=O)O [SNOAC, S-nitroso-N-acetylcysteine]",hypoxia-like response in gene expression,mouse model; in vitro and in vivo,induced a hypoxia-like response
same,blood pressure in the lungs and right ventricle of the heart (pulmonary artery hypertension),"mouse model; mice treated with acetylcysteine, metabolite SNOAC",increased
Cc1cccc(-c2nn3c(c2-c2ccnc4ccc(C(N)=O)cc24)CCC3)n1 [galunisertive],AS progression,LDLR mice on HFD,halted AS progression
same,cardiac fibrosis induced by ascending aortic constriction,[1],inhibited cardiac fibrosis
CC(C)c1nc(N(C)S(C)(=O)=O)nc(-c2ccc(F)cc2)c1/C=C/[C@@H](O)C[C@@H](O)CC(=O)O [rosuvastatin],aortic stenosis progression,[2],slowing of aortic stenosis
